{
  "source": "the kinase profiling compilation of Christmann-Franck et al. (2016)",
  "assay_in_all_cases": "KINOMEscan competition binding",
  "details_in_all_cases": "compound 10.0 µM",
  "key": {"[1]": {"biological_target": "MAP3K7 (human) (UniProt O43318)"}, "[2]": {"biological_target": "IKBKE (human) (UniProt Q14164)"}, "[3]": {"biological_target": "EPHB4 (human) (UniProt P54760)", "sequence (P54760 whole entry, looked up)": "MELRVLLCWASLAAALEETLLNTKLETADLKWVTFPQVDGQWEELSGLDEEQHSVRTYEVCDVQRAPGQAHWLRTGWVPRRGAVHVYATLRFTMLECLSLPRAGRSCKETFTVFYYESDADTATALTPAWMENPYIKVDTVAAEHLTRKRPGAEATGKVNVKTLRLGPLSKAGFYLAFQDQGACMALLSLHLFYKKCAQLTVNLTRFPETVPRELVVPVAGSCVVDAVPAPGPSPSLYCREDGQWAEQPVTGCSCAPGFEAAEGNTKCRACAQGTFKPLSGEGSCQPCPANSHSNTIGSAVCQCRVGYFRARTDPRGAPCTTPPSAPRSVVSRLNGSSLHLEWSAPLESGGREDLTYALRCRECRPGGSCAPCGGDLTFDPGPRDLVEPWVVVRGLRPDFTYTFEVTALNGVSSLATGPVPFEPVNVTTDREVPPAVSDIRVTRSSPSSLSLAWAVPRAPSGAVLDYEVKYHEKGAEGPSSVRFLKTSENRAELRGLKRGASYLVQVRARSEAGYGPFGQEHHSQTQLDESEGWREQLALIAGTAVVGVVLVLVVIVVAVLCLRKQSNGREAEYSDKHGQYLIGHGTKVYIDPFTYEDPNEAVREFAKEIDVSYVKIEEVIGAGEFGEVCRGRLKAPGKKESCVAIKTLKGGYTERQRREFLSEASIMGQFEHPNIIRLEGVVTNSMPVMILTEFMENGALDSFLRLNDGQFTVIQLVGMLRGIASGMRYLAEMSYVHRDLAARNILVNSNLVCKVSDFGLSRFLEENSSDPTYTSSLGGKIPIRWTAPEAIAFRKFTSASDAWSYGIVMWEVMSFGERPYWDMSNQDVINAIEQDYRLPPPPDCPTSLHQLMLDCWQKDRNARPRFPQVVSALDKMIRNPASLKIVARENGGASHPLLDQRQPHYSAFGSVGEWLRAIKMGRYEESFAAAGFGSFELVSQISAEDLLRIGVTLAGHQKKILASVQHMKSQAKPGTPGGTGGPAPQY"}, "[4]": {"biological_target": "GRK4 (human) (UniProt P32298)"}, "[5]": {"biological_target": "WEE1 (human) (UniProt P30291)", "sequence (P30291 whole entry, looked up)": "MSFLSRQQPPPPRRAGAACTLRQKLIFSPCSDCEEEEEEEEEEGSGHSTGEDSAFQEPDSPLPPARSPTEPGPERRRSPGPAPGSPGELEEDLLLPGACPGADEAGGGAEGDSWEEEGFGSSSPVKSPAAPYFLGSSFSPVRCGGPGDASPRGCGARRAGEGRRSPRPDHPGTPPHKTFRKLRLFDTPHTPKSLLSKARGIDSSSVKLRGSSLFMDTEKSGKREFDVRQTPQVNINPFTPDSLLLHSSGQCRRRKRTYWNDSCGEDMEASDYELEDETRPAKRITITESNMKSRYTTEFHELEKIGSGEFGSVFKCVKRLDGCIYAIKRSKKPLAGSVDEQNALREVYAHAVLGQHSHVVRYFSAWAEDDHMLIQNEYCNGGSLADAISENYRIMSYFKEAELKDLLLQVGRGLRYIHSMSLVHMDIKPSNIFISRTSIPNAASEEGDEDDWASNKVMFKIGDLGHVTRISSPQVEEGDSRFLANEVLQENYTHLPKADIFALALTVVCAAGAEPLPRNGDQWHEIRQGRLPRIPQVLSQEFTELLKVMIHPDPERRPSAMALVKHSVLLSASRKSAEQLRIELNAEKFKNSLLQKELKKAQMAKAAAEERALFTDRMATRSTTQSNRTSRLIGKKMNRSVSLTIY"}, "[6]": {"biological_target": "NEK11 (human) (UniProt Q8NG66)"}, "[7]": {"biological_target": "PRKG1 (human) (UniProt Q13976)"}, "[8]": {"biological_target": "CDK2 (human) (UniProt P24941)"}, "[9]": {"biological_target": "LCK (human) (UniProt P06239)"}, "[10]": {"biological_target": "EPHA1 (human) (UniProt P21709)"}, "[11]": {"biological_target": "MELK (human) (UniProt Q14680)"}, "[12]": {"biological_target": "LIMK1 (human) (UniProt P53667)"}, "[13]": {"biological_target": "BTK (human) (UniProt Q06187)"}, "[14]": {"biological_target": "MAPK4 (human) (UniProt P31152)"}, "[15]": {"biological_target": "MAPK8 (human) (UniProt P45983)"}, "[16]": {"biological_target": "MAPK3 (human) (UniProt P27361)", "sequence (P27361 whole entry, looked up)": "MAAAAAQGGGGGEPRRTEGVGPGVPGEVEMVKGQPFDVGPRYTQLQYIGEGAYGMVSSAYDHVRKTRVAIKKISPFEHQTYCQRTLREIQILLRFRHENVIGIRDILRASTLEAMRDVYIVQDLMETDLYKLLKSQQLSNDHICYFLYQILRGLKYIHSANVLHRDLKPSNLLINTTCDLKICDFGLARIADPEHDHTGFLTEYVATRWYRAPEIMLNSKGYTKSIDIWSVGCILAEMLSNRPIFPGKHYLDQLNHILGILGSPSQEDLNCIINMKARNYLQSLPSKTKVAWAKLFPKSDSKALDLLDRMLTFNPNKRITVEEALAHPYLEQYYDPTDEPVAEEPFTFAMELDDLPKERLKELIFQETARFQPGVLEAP"}, "[17]": {"biological_target": "DDR1 (human) (UniProt Q08345)", "sequence (Q08345 whole entry, looked up)": "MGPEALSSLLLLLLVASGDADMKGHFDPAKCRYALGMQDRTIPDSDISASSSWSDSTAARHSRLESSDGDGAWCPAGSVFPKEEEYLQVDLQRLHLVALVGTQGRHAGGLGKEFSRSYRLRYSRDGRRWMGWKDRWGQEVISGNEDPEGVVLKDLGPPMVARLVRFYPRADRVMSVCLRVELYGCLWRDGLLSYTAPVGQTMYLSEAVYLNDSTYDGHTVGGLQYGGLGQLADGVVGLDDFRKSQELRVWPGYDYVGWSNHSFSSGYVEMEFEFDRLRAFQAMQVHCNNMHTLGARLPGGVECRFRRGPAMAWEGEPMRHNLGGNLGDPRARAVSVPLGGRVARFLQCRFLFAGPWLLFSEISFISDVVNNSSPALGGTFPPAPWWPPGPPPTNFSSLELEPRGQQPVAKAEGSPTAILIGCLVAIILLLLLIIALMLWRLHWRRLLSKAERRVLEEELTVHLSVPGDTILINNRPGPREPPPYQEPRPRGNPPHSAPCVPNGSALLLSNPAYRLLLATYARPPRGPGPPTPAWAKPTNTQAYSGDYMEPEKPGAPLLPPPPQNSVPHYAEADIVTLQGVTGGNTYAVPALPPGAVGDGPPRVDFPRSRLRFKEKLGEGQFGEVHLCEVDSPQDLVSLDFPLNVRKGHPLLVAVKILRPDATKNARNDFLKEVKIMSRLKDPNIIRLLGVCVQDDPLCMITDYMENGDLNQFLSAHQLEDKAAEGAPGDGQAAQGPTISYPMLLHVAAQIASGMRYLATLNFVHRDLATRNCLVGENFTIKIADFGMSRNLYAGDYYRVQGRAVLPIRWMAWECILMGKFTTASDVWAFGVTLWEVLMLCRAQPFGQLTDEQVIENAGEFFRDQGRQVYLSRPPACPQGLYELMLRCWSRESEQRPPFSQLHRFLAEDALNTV"}, "[18]": {"biological_target": "NIM1 (human) (UniProt Q8IY84)"}, "[19]": {"biological_target": "CDC42BPA (human) (UniProt Q5VT25)"}, "[20]": {"biological_target": "CDK5 (human) (UniProt Q00535)"}, "[21]": {"biological_target": "FLT3 (human) (UniProt P36888)"}, "[22]": {"biological_target": "TNK2 (human) (UniProt Q07912)"}, "[23]": {"biological_target": "NEK4 (human) (UniProt P51957)"}, "[24]": {"biological_target": "ZAP70 (human) (UniProt P43403)"}, "[25]": {"biological_target": "DYRK2 (human) (UniProt Q92630)"}, "[26]": {"biological_target": "BRSK2 (human) (UniProt Q8IWQ3)"}, "[27]": {"biological_target": "PLK4 (human) (UniProt O00444)"}, "[28]": {"biological_target": "MARK4 (human) (UniProt Q96L34)"}, "[29]": {"biological_target": "RPS6KA4 KD1 (human) (UniProt O75676)", "sequence (O75676 whole entry, looked up)": "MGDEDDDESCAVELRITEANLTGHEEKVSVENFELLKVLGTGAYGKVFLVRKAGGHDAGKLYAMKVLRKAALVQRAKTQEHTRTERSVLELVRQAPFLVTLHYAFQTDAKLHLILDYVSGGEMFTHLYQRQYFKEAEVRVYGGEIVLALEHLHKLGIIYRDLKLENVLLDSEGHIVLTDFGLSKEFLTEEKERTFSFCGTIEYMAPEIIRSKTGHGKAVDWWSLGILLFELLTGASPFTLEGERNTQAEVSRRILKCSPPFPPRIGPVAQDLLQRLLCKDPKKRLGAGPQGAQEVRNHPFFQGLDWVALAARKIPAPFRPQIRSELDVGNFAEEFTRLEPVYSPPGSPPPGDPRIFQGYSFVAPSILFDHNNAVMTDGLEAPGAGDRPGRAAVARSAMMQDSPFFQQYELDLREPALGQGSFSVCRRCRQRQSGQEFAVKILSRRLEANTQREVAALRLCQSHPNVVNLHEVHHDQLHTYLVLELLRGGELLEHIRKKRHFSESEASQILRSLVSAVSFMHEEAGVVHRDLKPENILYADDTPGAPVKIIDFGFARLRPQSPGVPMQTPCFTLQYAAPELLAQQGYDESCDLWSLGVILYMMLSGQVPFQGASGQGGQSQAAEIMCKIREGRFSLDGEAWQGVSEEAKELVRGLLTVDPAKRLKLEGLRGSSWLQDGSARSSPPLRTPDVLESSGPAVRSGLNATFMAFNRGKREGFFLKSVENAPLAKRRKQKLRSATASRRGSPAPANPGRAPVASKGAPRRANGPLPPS"}, "[30]": {"biological_target": "CDK7 (human) (UniProt P50613)"}, "[31]": {"biological_target": "ERN1 (human) (UniProt O75460)"}, "[32]": {"biological_target": "AKT3 (human) (UniProt Q9Y243)", "sequence (Q9Y243 whole entry, looked up)": "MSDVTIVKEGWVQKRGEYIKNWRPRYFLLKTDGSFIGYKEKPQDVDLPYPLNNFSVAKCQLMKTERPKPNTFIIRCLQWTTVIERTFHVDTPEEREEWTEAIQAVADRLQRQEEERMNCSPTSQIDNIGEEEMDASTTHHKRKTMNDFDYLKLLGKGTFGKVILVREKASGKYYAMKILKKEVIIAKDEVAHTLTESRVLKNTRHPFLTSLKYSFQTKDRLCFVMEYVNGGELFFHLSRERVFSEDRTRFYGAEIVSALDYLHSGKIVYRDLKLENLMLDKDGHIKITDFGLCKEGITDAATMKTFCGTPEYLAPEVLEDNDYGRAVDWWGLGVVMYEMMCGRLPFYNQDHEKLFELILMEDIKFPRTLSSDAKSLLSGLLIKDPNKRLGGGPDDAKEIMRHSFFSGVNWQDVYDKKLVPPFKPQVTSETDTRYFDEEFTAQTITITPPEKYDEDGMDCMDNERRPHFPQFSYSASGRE"}, "[33]": {"biological_target": "PIM1 (human) (UniProt P11309)"}, "[34]": {"biological_target": "PIK3CB (human) (UniProt P42338)"}, "[35]": {"biological_target": "AXL (human) (UniProt P30530)", "sequence (P30530 whole entry, looked up)": "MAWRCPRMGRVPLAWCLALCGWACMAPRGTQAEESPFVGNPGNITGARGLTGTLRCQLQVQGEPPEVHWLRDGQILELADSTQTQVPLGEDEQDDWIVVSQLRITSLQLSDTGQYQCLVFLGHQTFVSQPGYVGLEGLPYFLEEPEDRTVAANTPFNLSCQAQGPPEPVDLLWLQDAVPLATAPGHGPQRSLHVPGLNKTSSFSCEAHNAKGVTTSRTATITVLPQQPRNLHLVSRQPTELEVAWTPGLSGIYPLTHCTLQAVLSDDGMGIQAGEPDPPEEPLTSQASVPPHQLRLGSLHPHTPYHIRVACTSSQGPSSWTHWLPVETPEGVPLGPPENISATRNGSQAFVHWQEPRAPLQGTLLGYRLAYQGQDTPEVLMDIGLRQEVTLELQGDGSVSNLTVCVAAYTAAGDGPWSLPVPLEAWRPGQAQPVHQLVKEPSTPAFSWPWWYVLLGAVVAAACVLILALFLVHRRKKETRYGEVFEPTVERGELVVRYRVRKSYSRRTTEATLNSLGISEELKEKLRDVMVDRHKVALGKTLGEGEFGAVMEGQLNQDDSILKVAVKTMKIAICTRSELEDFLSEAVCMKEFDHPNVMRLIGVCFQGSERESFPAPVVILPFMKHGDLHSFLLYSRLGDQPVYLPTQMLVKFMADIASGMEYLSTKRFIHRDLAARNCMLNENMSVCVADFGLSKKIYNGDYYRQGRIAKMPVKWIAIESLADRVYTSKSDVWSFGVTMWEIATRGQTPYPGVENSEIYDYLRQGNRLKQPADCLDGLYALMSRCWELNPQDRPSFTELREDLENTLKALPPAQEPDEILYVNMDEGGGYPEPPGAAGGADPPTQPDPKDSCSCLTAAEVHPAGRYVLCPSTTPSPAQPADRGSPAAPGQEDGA"}, "[36]": {"tested_on": "FLT3 (human), P36888 [D835H]"}, "[37]": {"biological_target": "ITK (human) (UniProt Q08881)"}, "[38]": {"biological_target": "TTK (human) (UniProt P33981)"}, "[39]": {"biological_target": "CAMKK2 (human) (UniProt Q96RR4)"}, "[40]": {"tested_on": "RET (human), P07949 [M918T]"}, "[41]": {"biological_target": "RIPK4 (human) (UniProt P57078)"}},
  "data": [
    {"smiles": "CN(C)C/C=C/C(=O)Nc1ccc(C(=O)Nc2cccc(Nc3nccc(-c4cccnc4)n3)c2)cc1", "values": [
      {"measurement": "kinase still bound, per cent of control", "setting": "[1]", "value": 9.2, "unit": "%"},
      {"measurement": "kinase still bound, per cent of control", "setting": "[2]", "value": 76, "unit": "%"},
      {"measurement": "kinase still bound, per cent of control", "setting": "[3]", "value": 100, "unit": "%"},
      {"measurement": "kinase still bound, per cent of control", "setting": "[4]", "value": 29, "unit": "%"},
      {"measurement": "kinase still bound, per cent of control", "setting": "[5]", "value": 100, "unit": "%"},
      {"measurement": "kinase still bound, per cent of control", "setting": "[6]", "value": 100, "unit": "%"},
      {"measurement": "kinase still bound, per cent of control", "setting": "[7]", "value": 100, "unit": "%"},
      {"measurement": "kinase still bound, per cent of control", "setting": "[8]", "value": 100, "unit": "%"},
      {"measurement": "kinase still bound, per cent of control", "setting": "[9]", "value": 100, "unit": "%"},
      {"measurement": "kinase still bound, per cent of control", "setting": "[10]", "value": 76, "unit": "%"},
      {"measurement": "kinase still bound, per cent of control", "setting": "[11]", "value": 58, "unit": "%"},
      {"measurement": "kinase still bound, per cent of control", "setting": "[12]", "value": 60, "unit": "%"},
      {"measurement": "kinase still bound, per cent of control", "setting": "[13]", "value": 71, "unit": "%"},
      {"measurement": "kinase still bound, per cent of control", "setting": "[14]", "value": 19, "unit": "%"},
      {"measurement": "kinase still bound, per cent of control", "setting": "[15]", "value": 1.2, "unit": "%"},
      {"measurement": "kinase still bound, per cent of control", "setting": "[16]", "value": 100, "unit": "%"},
      {"measurement": "kinase still bound, per cent of control", "setting": "[17]", "value": 100, "unit": "%"},
      {"measurement": "kinase still bound, per cent of control", "setting": "[18]", "value": 94, "unit": "%"},
      {"measurement": "kinase still bound, per cent of control", "setting": "[19]", "value": 100, "unit": "%"},
      {"measurement": "kinase still bound, per cent of control", "setting": "[20]", "value": 100, "unit": "%"},
      {"measurement": "kinase still bound, per cent of control", "setting": "[21]", "value": 36, "unit": "%"},
      {"measurement": "kinase still bound, per cent of control", "setting": "[22]", "value": 100, "unit": "%"},
      {"measurement": "kinase still bound, per cent of control", "setting": "[23]", "value": 100, "unit": "%"},
      {"measurement": "kinase still bound, per cent of control", "setting": "[24]", "value": 85, "unit": "%"},
      {"measurement": "kinase still bound, per cent of control", "setting": "[25]", "value": 29, "unit": "%"},
      {"measurement": "kinase still bound, per cent of control", "setting": "[26]", "value": 88, "unit": "%"},
      {"measurement": "kinase still bound, per cent of control", "setting": "[27]", "value": 29, "unit": "%"},
      {"measurement": "kinase still bound, per cent of control", "setting": "[28]", "value": 26, "unit": "%"},
      {"measurement": "kinase still bound, per cent of control", "setting": "[29]", "value": 100, "unit": "%"},
      {"measurement": "kinase still bound, per cent of control", "setting": "[30]", "value": 3.2, "unit": "%"},
      {"measurement": "kinase still bound, per cent of control", "setting": "[31]", "value": 70, "unit": "%"},
      {"measurement": "kinase still bound, per cent of control", "setting": "[32]", "value": 100, "unit": "%"},
      {"measurement": "kinase still bound, per cent of control", "setting": "[33]", "value": 95, "unit": "%"},
      {"measurement": "kinase still bound, per cent of control", "setting": "[34]", "value": 100, "unit": "%"},
      {"measurement": "kinase still bound, per cent of control", "setting": "[35]", "value": 80, "unit": "%"},
      {"measurement": "kinase still bound, per cent of control", "setting": "[36]", "value": 28, "unit": "%"},
      {"measurement": "kinase still bound, per cent of control", "setting": "[37]", "value": 100, "unit": "%"},
      {"measurement": "kinase still bound, per cent of control", "setting": "[38]", "value": 77, "unit": "%"},
      {"measurement": "kinase still bound, per cent of control", "setting": "[39]", "value": 16, "unit": "%"},
      {"measurement": "kinase still bound, per cent of control", "setting": "[40]", "value": 70, "unit": "%"},
      {"measurement": "kinase still bound, per cent of control", "setting": "[41]", "value": 33, "unit": "%"}
    ]},
    {"smiles": "COc1cc(C(=O)N2CCC(N3CCN(C)CC3)CC2)ccc1Nc1ncc2c(n1)N(C)c1ccccc1C(=O)N2C", "values": [
      {"measurement": "kinase still bound, per cent of control", "setting": "[1]", "value": 98, "unit": "%"},
      {"measurement": "kinase still bound, per cent of control", "setting": "[2]", "value": 96, "unit": "%"},
      {"measurement": "kinase still bound, per cent of control", "setting": "[3]", "value": 100, "unit": "%"},
      {"measurement": "kinase still bound, per cent of control", "setting": "[4]", "value": 86, "unit": "%"},
      {"measurement": "kinase still bound, per cent of control", "setting": "[5]", "value": 100, "unit": "%"},
      {"measurement": "kinase still bound, per cent of control", "setting": "[6]", "value": 100, "unit": "%"},
      {"measurement": "kinase still bound, per cent of control", "setting": "[7]", "value": 98, "unit": "%"},
      {"measurement": "kinase still bound, per cent of control", "setting": "[8]", "value": 100, "unit": "%"},
      {"measurement": "kinase still bound, per cent of control", "setting": "[9]", "value": 100, "unit": "%"},
      {"measurement": "kinase still bound, per cent of control", "setting": "[10]", "value": 100, "unit": "%"},
      {"measurement": "kinase still bound, per cent of control", "setting": "[11]", "value": 100, "unit": "%"},
      {"measurement": "kinase still bound, per cent of control", "setting": "[12]", "value": 95, "unit": "%"},
      {"measurement": "kinase still bound, per cent of control", "setting": "[13]", "value": 100, "unit": "%"},
      {"measurement": "kinase still bound, per cent of control", "setting": "[14]", "value": 100, "unit": "%"},
      {"measurement": "kinase still bound, per cent of control", "setting": "[15]", "value": 95, "unit": "%"},
      {"measurement": "kinase still bound, per cent of control", "setting": "[16]", "value": 100, "unit": "%"},
      {"measurement": "kinase still bound, per cent of control", "setting": "[17]", "value": 100, "unit": "%"},
      {"measurement": "kinase still bound, per cent of control", "setting": "[18]", "value": 100, "unit": "%"},
      {"measurement": "kinase still bound, per cent of control", "setting": "[19]", "value": 100, "unit": "%"},
      {"measurement": "kinase still bound, per cent of control", "setting": "[20]", "value": 81, "unit": "%"},
      {"measurement": "kinase still bound, per cent of control", "setting": "[21]", "value": 100, "unit": "%"},
      {"measurement": "kinase still bound, per cent of control", "setting": "[22]", "value": 18, "unit": "%"},
      {"measurement": "kinase still bound, per cent of control", "setting": "[23]", "value": 95, "unit": "%"},
      {"measurement": "kinase still bound, per cent of control", "setting": "[24]", "value": 79, "unit": "%"},
      {"measurement": "kinase still bound, per cent of control", "setting": "[25]", "value": 76, "unit": "%"},
      {"measurement": "kinase still bound, per cent of control", "setting": "[26]", "value": 64, "unit": "%"},
      {"measurement": "kinase still bound, per cent of control", "setting": "[27]", "value": 0, "unit": "%"},
      {"measurement": "kinase still bound, per cent of control", "setting": "[28]", "value": 78, "unit": "%"},
      {"measurement": "kinase still bound, per cent of control", "setting": "[29]", "value": 100, "unit": "%"},
      {"measurement": "kinase still bound, per cent of control", "setting": "[30]", "value": 86, "unit": "%"},
      {"measurement": "kinase still bound, per cent of control", "setting": "[31]", "value": 59, "unit": "%"},
      {"measurement": "kinase still bound, per cent of control", "setting": "[32]", "value": 100, "unit": "%"},
      {"measurement": "kinase still bound, per cent of control", "setting": "[33]", "value": 100, "unit": "%"},
      {"measurement": "kinase still bound, per cent of control", "setting": "[34]", "value": 96, "unit": "%"},
      {"measurement": "kinase still bound, per cent of control", "setting": "[35]", "value": 100, "unit": "%"},
      {"measurement": "kinase still bound, per cent of control", "setting": "[36]", "value": 100, "unit": "%"},
      {"measurement": "kinase still bound, per cent of control", "setting": "[37]", "value": 82, "unit": "%"},
      {"measurement": "kinase still bound, per cent of control", "setting": "[38]", "value": 28, "unit": "%"},
      {"measurement": "kinase still bound, per cent of control", "setting": "[39]", "value": 31, "unit": "%"},
      {"measurement": "kinase still bound, per cent of control", "setting": "[40]", "value": 100, "unit": "%"},
      {"measurement": "kinase still bound, per cent of control", "setting": "[41]", "value": 74, "unit": "%"}
    ]}
  ]
}
